The record followed here is patent US20240350421A1, “Cationic Polymeric Nanoparticles and Their Uses in Treating Diseases” (University of Connecticut, priority 2021, published 2024).

This data set is described as follows: Cell proliferation (trypan blue) assay in HeLa cells. It counts as cell-based. The note with it: human, read-out: reduction in cell viability. As for the experimental part:
200,000 PBMC cells were seeded in a plate (12 well) overnight and treated with 2 mg/mL blank F2 NPs and 150 μL of lipofectamine. After 24 h, cells were stained with trypan blue dye and total live cells were determined by cell counter (Bio-Rad, USA). For cytotoxicity assay in HeLa cells, 50,000 HeLa cells were seeded in plates (24 well) and treated with paclitaxel (PTX) F2 NPs for 24 h, and cell viability was measured by staining with trypan blue dye.

Turning to `CC(=O)O[C@H]1C(=O)[C@@]2(C)[C@H]([C@H](OC(=O)c3ccccc3)[C@]3(O)C[C@H](OC(=O)[C@H](O)[C@@H](NC(=O)c4ccccc4)c4ccccc4)C(C)=C1C3(C)C)[C@]1(OC(C)=O)CO[C@@H]1C[C@@H]2O` [PTX suspension, paclitaxel], the cytotoxicity at 24 h is 17%.
